Laboratory results published in PubChem BioAssay AID2401 (Southern Research Specialized Biocontainment Screening …, 2010).
Where “and” joins values, the source holds several entries; their conditions need not be identical. Equal values may be shown once.

Tested on: S. Typhimurium GFP reporter counter-screen, fluorescence, 4 h
Test: nmpC-GFP reporter counter-screen in S. Typhimurium, dose response, counter-screen for PhoP regulon inhibitor project, Salmonella Typhimurium, GFP fluorescence (AID 2401);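 further: S. typhimurium with Mg-insensitive nmpC-GFP reporter grown at 10 µM Mg2+; drop in reporter fluorescence reflects general culture growth inhibition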

SMILES | IC50
CCn1cc(C(=O)O)c(=O)c2cc(F)c(N3CCN(C(=S)NC(=O)c4c(OC)cccc4OC)CC3)cc21 | 54.2 µM
Oc1cccc(/C=N/Nc2ccc(Cl)nn2)c1O | 18.3 µM
Cc1ccc(Nc2cc(C)c3ccc(O)cc3n2)cc1C | 146 µM
Fc1ccccc1CCNCc1ccccc1 | 36.2 µM
COc1ccc(Nc2cc(C)c3c(O)cccc3n2)cc1 | 47.2 µM
CCC(C)(C)c1ccc(OCCCC[n+]2ccc(C)cc2)c(C(C)(C)CC)c1 | 48.4 µM
CN1CCN(c2c(F)cc3c(=O)c(C(=O)O)cn4c3c2OCN4C)CC1 | 0.61 µM
CCCCCOc1ccc(Br)cc1CSC(=N)N | 61.1 µM
CCCCOc1ccc(CSC(=N)N)cc1[N+](=O)[O-] | 115 µM
N=c1c2c(n(Cc3ccc(Br)cc3)c3c1CCC3)CCCC2 | 132 µM
N=C(N)SCc1cn(-c2ccccc2)nc1-c1ccc(Br)cc1 | 20.3 µM
O=C(C[n+]1cccc(CNC(=O)c2ccc(OC(F)F)cc2)c1)Nc1ccc(SC(F)F)cc1 | 78.4 µM
CCn1cc(C(=O)O)c(=O)c2cc(F)c(N3CCN(C(=O)Nc4ccccc4)CC3)cc21 | 75.2 µM
CCCCCCCCCCCCCCCC[n+]1cccc(C(=O)N(CC)CC)c1 | 20.1 µM
c1ccc2c(c1)Sc1ccccc1N2CC1CN2CCC1CC2 (stereo unspecified) | 108 µM
C[C@H]1c2cccc(O)c2C(O)=C2C(=O)[C@]3(O)C(O)=C(C(N)=O)C(=O)[C@@H](N(C)C)C3[C@@H](O)C21 (stereo partly specified) | 2.3 µM
C/C(CC(=O)Nc1ccc(Cl)c(C(F)(F)F)c1)=N\NC(=O)c1ccccc1O | 117 µM
NC(N)=N/N=C/c1ccc(OCc2ccc(Cl)cc2)cc1 | 35.7 µM
O=C(N/N=C/c1sc2ccccc2c1O)c1cccc2ccccc12 | 23.6 µM
COc1ccc(Nc2cc(C)nc(NCc3ccccc3)n2)cc1 | 111 µM
CCCCCCCCNC(C)C(O)c1ccc(SC(C)C)cc1 (stereo unspecified) | 75.3 µM

SMILES | IC50
O=C(O)CCN1C(=O)CC(N2C(=O)/C(=C/c3ccc(Cl)cc3)SC2=S)C1=O (stereo unspecified) | 20.6 µM
O=C(NC(=S)NNC(=O)c1ccccc1O)c1ccco1 | 41.5 µM
CCCCCCCCn1c2c(c(=N)c3c1CCC3)CCCC2 | 70.9 µM
CCCCCN=C(N)N/N=C/c1c[nH]c2ccc(OC)cc12 | 37 µM
CN1CCN(C(c2ccc(Cl)cc2)c2cc(Cl)c3cccnc3c2O)CC1 (stereo unspecified) | 33.5 µM
c1ccc(-c2cccc(-c3ccccn3)n2)nc1 | 21.2 µM
CCN1/C(=C/C(C)=C/c2sc3ccccc3[n+]2CC)Sc2ccccc21 | 12.9 µM
CCn1cc(C(=O)O)c(=O)c2cc(F)c(N3CCN(C(=S)Nc4ccc(OC)cc4)CC3)cc21 | 15.3 µM
Oc1c(CN2CCc3ccccc3C2)cc(Cl)c2cccnc12 | 17.4 µM
C1=C(CCNCc2ccccc2)CCCC1 | 7.93 µM
CCn1cc(C(=O)NCCN(C)C)c(=O)c2cc(F)c(N3CCN(C)CC3)cc21 | 89.8 µM
COc1ccc(CNC[C@@H](CCCCN(C)Cc2ccc(OC)cc2)N2C[C@H](c3ccccc3)N(CCc3ccc(Cl)c(Cl)c3)C(=O)C2=O)cc1 | 45.7 µM
CCn1cc(C(=O)O)c(=O)c2cc(F)c(N3CCN(C)CC3)cc21 | 2.15 µM
CCCCCCCCCCCCCCCC[n+]1ccc(/C=N/O)cc1 | 28.7 µM
NCCc1c(-c2ccccc2)n(-c2ccccc2)c2ccccc12 | 43.7 µM
O=[N+]([O-])c1cc(CN2CCCC2)c2cccnc2c1O | 40.6 µM
Cc1cc(C(=O)N/N=C/c2ccc([N+](=O)[O-])s2)n[nH]1 | 35 µM
CC(C(=O)NC1C=CS(=O)(=O)C1)N1C(=O)/C(=C/c2ccc(Cl)cc2)SC1=S (stereo unspecified) | 15.4 µM
O=c1[nH][nH]c(-c2ccccc2O)c1C(C[N+](=O)[O-])c1ccc(Br)cc1 (stereo unspecified) | 51.7 µM
Cc1nc2c(=O)n(C)c(=O)n(C)c2nc1Cl | 106 µM
COc1c(N2CCN(C(=S)Nc3ccccc3F)C(C)C2)c(F)cc2c(=O)c(C(=O)O)cn(C3CC3)c12 (stereo unspecified) | 15.3 µM

SMILES | IC50
CN(O)/C=c1/ccc2c(n1)C(=O)C=CC=2 | 35 µM
O=C(N/N=C/c1coc2ccc(Cl)cc2c1=O)c1cc(O)cc(O)c1 | 88 µM
Cc1sc2ncnc(N/N=C/c3ccccc3O)c2c1C | 72.3 µM
Cc1ccc(S(=O)(=O)NC2=NCN(CCOC(=O)c3ccc([N+](=O)[O-])cc3)CN2)cc1 | 145 µM
COc1nsnc1NS(=O)(=O)c1ccc(NC(=S)NC(=O)c2cccnc2)cc1 | 42.6 µM
O=C1c2ccccc2C(=O)c2[nH]c(=O)[nH]c21 | 6.67 µM
CC(=O)NC(c1cccs1)c1cc([N+](=O)[O-])c2cccnc2c1O (stereo unspecified) | 30.8 µM
CCCCCCCCCCOC(=O)Cn1c(COc2ccccc2OC)[n+](C)c2ccccc21 | 21.4 µM
CC(=O)NC(c1ccc(C)cc1)c1cc([N+](=O)[O-])c2cccnc2c1O (stereo unspecified) | 33.5 µM
COc1cc(C)c(Cc2cnc(N)nc2N)cc1OC | 2.03 µM
Oc1ccc(CNc2ccccc2F)c2cccnc12 | 45.7 µM
Cc1ccc(NC(=O)NCC2CCN(Cc3cccc(Cl)c3)CC2)cc1Cl | 70.2 µM
CCCCCCCCCn1c2c(c(=N)c3c1CCC3)CCC2 | 37.2 µM
Cc1cc(SCC(=O)N/N=C/c2ccc(O)c(O)c2O)c(C)cc1Br | 30.6 µM
Nc1cc(Cl)c2nonc2c1[N+](=O)[O-] | 54.1 µM
COC12C(COC(N)=O)C3=C(C(=O)C(C)=C(N)C3=O)N1CC1C2N1C (stereo unspecified) | 77.2 µM
COC(=O)C1C(O)C(C)C(O)C(C)/C=C\C=C(/C)C(=O)Nc2c(C)c(OC(C)=O)c3c(c2O)C(=O)C(C)=C2OCOC(=C23)/C(C)=C/C(C)(O)C(O)C(C)C1O (stereo unspecified) | 22.2 µM
CCn1cc(C(=O)NCCCN(C)C)c(=O)c2cc(F)c(N3CCN(C)CC3)cc21 | 86.9 µM
O=c1[nH]cc(F)c(=O)[nH]1 | 20.5 µM
NC1=NC[C@H](c2ccccc2)N1CCCCC1CCCCC1 | 52.2 µM
COc1ccccc1CNCCc1ccc(F)cc1 | 35 µM

SMILES | IC50
CCN(CC(=O)NC(C)(C)C)C(=O)COc1c(Cl)cc(Cl)c2ccc(C)nc12 | 82.4 µM
O=C1NC(=S)S/C1=C\C=C\c1ccc([N+](=O)[O-])o1 | 21.7 µM
CN(C)CCCN(C(=O)CCc1ccccc1)c1nc2ccc(Cl)cc2s1 | 39 µM
NC(N)=NN=C1CCCCCCCCCCC1 | 77.3 µM
Cc1ccc(C(C[N+](=O)[O-])c2c(-c3ccccc3O)[nH][nH]c2=O)cc1 (stereo unspecified) | 14.9 µM
Cc1ccccc1Nc1cc(C)c2c(O)cccc2n1 | 41.2 µM
COc1c(N2CCN(C(=S)NCc3ccccc3)C(C)C2)c(F)cc2c(=O)c(C(=O)O)cn(C3CC3)c12 (stereo unspecified) | 90.4 µM
CCCCOc1ccc(Br)cc1CSC(=N)N | 75.5 µM
O=C1c2ccccc2NC(c2ccc(-c3cccc(Cl)c3)o2)N1O (stereo unspecified) | 52.2 µM
COc1ccc(OCc2n(CC(=O)OC3CC(C)CCC3C(C)C)c3ccccc3[n+]2C)cc1 (stereo unspecified) | 39.6 µM
Cc1ccc(S(=O)(=O)/N=C2/C=C(Sc3ncn[nH]3)C(=O)c3ccccc32)c(C)c1 | 149 µM
CCCCCCCCCCOC(=O)Cn1c(COc2ccc(OC)cc2)[n+](C)c2ccccc21 | 21.2 µM and 22.3 µM
CN(C)S(=O)(=O)c1cccc(NC(=S)N/N=C/c2cc(Br)ccc2O)c1 | 32.4 µM
O=C(O)C1Nc2c(O)cccc2C2C=CCC12 (stereo unspecified) | 86.9 µM
CCn1cc(C(=O)O)c(=O)c2cc3c(cc21)OCO3 | 80.6 µM
c1ccc(-c2nnc(-c3ccccn3)nc2NC2CCCCC2)cc1 | 78.3 µM
Cc1nnc(N/N=C/c2ccccn2)[nH]c1=O | 18 µM
CCn1cc(C(=O)NCC(C)C)c(=O)c2cc(F)c(N3CCN(C)CC3)cc21 | 67.8 µM
